Legend:
Type in all cases: cell-based
[1] = molecular target: Sodium-dependent serotonin transporter (Homo sapiens, UniProt P31645); test: Displacement of [3H](R,S)citalopram.HBr from human SERT transfected in human HEK293 cells
[2] = molecular target: Sodium-dependent dopamine transporter (Homo sapiens, UniProt Q01959); test: Displacement of [3H]RTI-55 from human DAT transfected in human HEK293 cells
[3] = molecular target: Sodium-dependent noradrenaline transporter (Homo sapiens, UniProt P23975); test: Displacement of [3H]nisoxetine from human NET transfected in human HEK293 cells
Sodium-dependent noradrenaline transporter, sequence (P23975 whole entry): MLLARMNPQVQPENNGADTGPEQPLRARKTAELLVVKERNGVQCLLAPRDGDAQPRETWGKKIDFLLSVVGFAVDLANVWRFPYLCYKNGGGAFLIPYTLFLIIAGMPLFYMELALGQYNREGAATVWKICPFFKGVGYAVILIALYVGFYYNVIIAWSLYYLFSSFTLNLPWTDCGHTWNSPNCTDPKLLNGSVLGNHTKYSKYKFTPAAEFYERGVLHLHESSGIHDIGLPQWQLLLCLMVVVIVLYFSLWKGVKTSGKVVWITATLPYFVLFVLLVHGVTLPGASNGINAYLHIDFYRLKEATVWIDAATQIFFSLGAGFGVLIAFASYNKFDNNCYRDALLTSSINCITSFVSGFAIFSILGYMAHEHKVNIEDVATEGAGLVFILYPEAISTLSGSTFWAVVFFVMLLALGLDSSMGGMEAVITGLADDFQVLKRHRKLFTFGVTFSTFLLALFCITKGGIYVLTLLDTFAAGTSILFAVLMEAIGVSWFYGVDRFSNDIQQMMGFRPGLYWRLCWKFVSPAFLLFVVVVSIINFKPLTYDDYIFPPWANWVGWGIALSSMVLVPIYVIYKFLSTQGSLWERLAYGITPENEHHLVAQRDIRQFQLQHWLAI

HEK293 [4] = test: Selectivity for human DAT over human SERT transfected in human HEK293 cells
HEK293 [5] = test: Selectivity for human NET over human SERT transfected in human HEK293 cells

Sodium-dependent dopamine transporter, sequence (Q01959 whole entry): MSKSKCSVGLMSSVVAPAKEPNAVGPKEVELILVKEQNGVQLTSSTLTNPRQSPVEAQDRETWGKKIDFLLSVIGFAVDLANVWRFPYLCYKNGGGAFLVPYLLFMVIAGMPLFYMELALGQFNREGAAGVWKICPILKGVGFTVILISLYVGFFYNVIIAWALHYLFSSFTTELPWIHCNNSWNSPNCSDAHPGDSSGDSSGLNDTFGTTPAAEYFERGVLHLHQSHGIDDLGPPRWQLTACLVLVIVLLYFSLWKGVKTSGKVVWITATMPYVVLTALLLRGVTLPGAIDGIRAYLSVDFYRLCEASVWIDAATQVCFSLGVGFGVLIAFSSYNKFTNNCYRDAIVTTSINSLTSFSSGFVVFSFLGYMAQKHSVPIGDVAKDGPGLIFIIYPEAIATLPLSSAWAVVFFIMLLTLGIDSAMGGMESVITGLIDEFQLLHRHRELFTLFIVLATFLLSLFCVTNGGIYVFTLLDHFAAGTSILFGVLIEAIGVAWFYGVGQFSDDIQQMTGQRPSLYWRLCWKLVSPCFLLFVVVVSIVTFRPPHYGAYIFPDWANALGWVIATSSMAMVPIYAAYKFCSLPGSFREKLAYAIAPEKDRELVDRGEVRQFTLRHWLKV
Sodium-dependent serotonin transporter, sequence (P31645 whole entry): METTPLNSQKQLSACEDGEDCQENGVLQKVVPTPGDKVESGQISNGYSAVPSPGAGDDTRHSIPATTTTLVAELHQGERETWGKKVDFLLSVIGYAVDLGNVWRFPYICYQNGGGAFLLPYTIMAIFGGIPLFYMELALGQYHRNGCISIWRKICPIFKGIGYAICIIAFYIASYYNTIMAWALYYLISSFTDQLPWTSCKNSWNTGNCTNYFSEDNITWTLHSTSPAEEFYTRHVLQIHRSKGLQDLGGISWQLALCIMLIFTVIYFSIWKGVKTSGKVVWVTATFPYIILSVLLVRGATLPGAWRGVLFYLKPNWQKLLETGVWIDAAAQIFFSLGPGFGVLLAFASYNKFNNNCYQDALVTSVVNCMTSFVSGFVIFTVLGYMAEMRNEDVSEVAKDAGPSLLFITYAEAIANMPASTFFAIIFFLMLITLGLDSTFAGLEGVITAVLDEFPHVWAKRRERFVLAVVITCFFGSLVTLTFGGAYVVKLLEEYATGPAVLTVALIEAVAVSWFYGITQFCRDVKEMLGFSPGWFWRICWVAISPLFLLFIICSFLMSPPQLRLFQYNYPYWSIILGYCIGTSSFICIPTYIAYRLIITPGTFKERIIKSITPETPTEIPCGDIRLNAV

Row | Compound | Ki [1] | Ki [2] | Ki [3] | Ratio Ki (HEK293 [4]) | Ratio Ki (HEK293 [5])
1 | O=C(OCCF)C1C2CCC(CC1c1cccc(/C=C/I)c1)N2 (trans isomer) | 15.2 nM | 274 nM | 1180 nM | 18 | 78
2 | O=C(OCCF)C1C2CCC(CC1c1cccc(/C=C\Br)c1)N2 (stereo not given) | 0.33 nM | 35.5 nM | 101 nM | 108 | 307
3 | O=C(OCCCF)C1C2CCC(CC1c1cccc(/C=C\Br)c1)N2 (stereo not given) | 0.33 nM | 119 nM | 30.2 nM | 360 | 92
4 | O=C(OCCF)C1C2CCC(CC1c1cccc(/C=C\I)c1)N2 (stereo not given) | 0.43 nM | 87.6 nM | 110 nM | 204 | 256
5 | O=C(OCCCF)C1C2CCC(CC1c1cccc(/C=C\I)c1)N2 (stereo not given) | 0.26 nM | 180 nM | 67.5 nM | 691 | 260
